US20050130949A1, “Cyclic polyamine compounds for cancer therapy” (priority 2000, published 2005)
One block for each compound: values may come before it.

Key:
DuPro cells = experiment: Intracellular polyamine and analog levels by HPLC of dansylated extracts; type: cell-based, human
Protocol: For data shown in Tables 3a and 3b, intracellular polyamine levels were determined using a standard protocol. About 0.5-1×10^6 cells were taken from harvested samples and centrifuged at 1000 rpm at 4° C. for 5 min. The cells were washed twice with chilled Dulbecco's isotonic phosphate buffer (pH 7.4) by centrifugation at 1000 rpm at 4° C. and resuspended in the same buffer. After the final centrifugation, the supernatant was decanted, and 250 μl of 8% sulfosalycilic acid was added to the cell pellet. The cells were then sonicated, and the mixture was kept at 4° C. for at least 1 h. After centrifugation at 8,000 g for 5 min, the supernatant was removed for analysis. An appropriate volume (50-100 μl) was fluorescence-labeled by derivatizing with dansyl chloride. Labeled polyamines were loaded onto a C-18 high-performance liquid chromatography column and separated by gradient elution with acetonitrile/water at 50° C. Peaks were detected and quantitated using a Shimadzu HPLC fluorescence monitor coupled with a Spectra-Physics peak integrator. Because polyamine levels vary with environmental conditions, control cultures were sampled for each experiment.

LnCap = experiment: MTT assay, cell growth inhibition, LnCap; type: cell-based; details: Homo sapiens, 144 h, 6 days with drug, read-out: ID50 LnCap
Source text: (§1) To assess the utility of the subject compounds in the treatment of neoplastic cell growth, the ability of the compounds to inhibit the in vitro growth characteristics of several commonly used cancer models were studied. The subject polyamines induce cell growth inhibitions in several cultured human prostate tumor cell lines such as LnCap, DuPro, and PC-3 as determined by the accepted MTT assay (Table 2) (Hansen, M. B. et al., “Re-examination and further development of a precise and rapid dye method for measuring cell growth/cell kill,” J. Immunol. Methods (1989)119(2):203-10). […] The results with the DuPro cell line are representative of the results with human prostate cell lines.
(§2) For the data shown in Table 2, an accepted MTT assay protocol was used. A trypsinized cell suspension was diluted to seed 80 μl suspension containing 500 cells in each well of a 96 well microtiter plates and incubated overnight at 37° C. in a humidified incubator in 5% CO2. Twenty μl of appropriately diluted stock solution of each drug was added to the middle 8 columns of cell suspension in the microtiter plates. Each drug concentration was run in quadruplicate. Outer columns of the plates were used for buffer controls. Cells were incubated with the drug for 6 days at 37° C. in 5% CO2/H2O atmosphere. Twenty five μl of 5 mg/ml solution of 3-(4,5-dimethythiazol-2-yl)-2,5-diphenyl tetrazolium bromide (MTT) was added to each well and incubated for 4 hours at 37° C. in 5% CO2/H2O incubator. Cells were lysed by incubating overnight with 100 μl lysis buffer (500 ml of the lysis buffer containing: 100 g lauryl sulfate (SDS), 250 ml of N,N-dimethyl formamide in 2 ml of glacial acetic acid, pH 4.8). The color was monitored at room temperature at 570 nm in a E-max Precision Microplate Reader (Molecular Devices Corporation, Sunnyvale, Calif.) and data were analyzed using cell survival software supplied by Molecular Devices Corporation.

PC-3 = experiment: MTT assay, cell growth inhibition, PC-3; type: cell-based; details: Homo sapiens, PC-3, 144 h, 6 days with drug, read-out: ID50 PC-3
Source text: as §1, §2

DuPro = experiment: MTT assay, cell growth inhibition, DuPro; type: cell-based; details: Homo sapiens, 144 h, 6 days with drug, read-out: ID50 DuPro
Source text: as §1, §2

[1] = inorganic phosphate released from 100 μM ATP in 24 hour, 37° C.
Protocol: In a 96 well microtiter plate, the first two columns were routinely used for standard curve generation. For the standard curve, 40 μl of 0-70 μM phosphate buffer was used by serially diluting 1 mM NaH2PO4 solution in 1 N HCl. For ATP hydrolysis, the rest of the microtiter plate was equally divided into two sections to run two analogs at a time. Each section was divided into the appropriate number of columns to serially dilute each analog between 0-10 mM in 29 μl 2N HCl for the final concentration of 2 N HCl. Each drug concentration was run in quadruplicate. Equal volumes of 500 μM ATP solution (pH 7.5) were added to each well and the plates were incubated at 37° C. for appropriate lengths of time between 2-24 h. At the end of the incubation period, 160 μl of coloring agent (0.045% Malachite Green in water and 4.2% ammonium molybdate in 4 N HCl (3:1 v/v)) was added and the plates were incubated at 37° C. for another 30 mins. All plates were read at 595 nm using a Emax precision microplate reader (Molecular Device, San Jose, Calif.). A control plate containing analog solutions without ATP was created for each experiment. Control plate reading was subtracted from each experimental plate and all data was normalized to ATP hydrolysis at zero concentration of polyamine analog. The average and standard deviation for quadruplicate runs were plotted.

[2] = 1 μM analog, Day 4 of Treatment
[3] = 1 μM analog, Day 6 of Treatment
[4] = 2 μM analog, Day 4 of Treatment
[5] = 2 μM analog, Day 6 of Treatment
[6] = 0.5 μM analog, Day 4 of Treatment
[7] = 0.5 μM analog, Day 6 of Treatment

SMILES: CCCCCCCCCCCCCC1CC(=O)NCCCNCCCCCNCCCN1 (stereo not drawn) [SL-11199]
Analog level (uptake) (DuPro cells; [6]): 26.959 nmoles/10^6 cells
Spm (spermine) level (DuPro cells; [6]): 0.002 nmoles/10^6 cells
Analog level (uptake) (DuPro cells; [7]): 26.841 nmoles/10^6 cells
Spd (spermidine) level (DuPro cells; [7]): 0.005 nmoles/10^6 cells
Spm (spermine) level (DuPro cells; [7]): 0.003 nmoles/10^6 cells
Analog level (uptake) (DuPro cells; [4]): 17.198 nmoles/10^6 cells
Analog level (uptake) (DuPro cells; [5]): 10.241 nmoles/10^6 cells
IC50 (LnCap): 1500 nM
IC50 (PC-3): 1400 nM
IC50 (DuPro): 1200 nM

SMILES: CCCCCCCCCCCCCC1CC(=O)NCCCNCCCNCCCNCCCN1 (stereo not drawn) [SL-11200]
Analog level (uptake) (DuPro cells; [2]): 10.089 nmoles/10^6 cells
Put (putrescine) level (DuPro cells; [2]): 0.004 nmoles/10^6 cells
Spd (spermidine) level (DuPro cells; [2]): 0.029 nmoles/10^6 cells
Spm (spermine) level (DuPro cells; [2]): 0.089 nmoles/10^6 cells
Analog level (uptake) (DuPro cells; [3]): 46.776 nmoles/10^6 cells
Spd (spermidine) level (DuPro cells; [3]): 0.014 nmoles/10^6 cells
Spm (spermine) level (DuPro cells; [3]): 0.043 nmoles/10^6 cells
Analog level (uptake) (DuPro cells; [4]): 5.989 nmoles/10^6 cells
Put (putrescine) level (DuPro cells; [4]): 0.020 nmoles/10^6 cells
Spd (spermidine) level (DuPro cells; [4]): 0.027 nmoles/10^6 cells
Spm (spermine) level (DuPro cells; [4]): 0.095 nmoles/10^6 cells
Analog level (uptake) (DuPro cells; [5]): 49.309 nmoles/10^6 cells
Put (putrescine) level (DuPro cells; [5]): 0.011 nmoles/10^6 cells
Spd (spermidine) level (DuPro cells; [5]): 0.018 nmoles/10^6 cells
Spm (spermine) level (DuPro cells; [5]): 0.053 nmoles/10^6 cells
IC50 (PC-3): 1300 nM
IC50 (DuPro): 1400 nM

SMILES: NCCCNCCCCNCCCN [spermine]
hydrolysis of ATP [1]: lack of ATP hydrolysis

Continued by falling IC50 (PC-3), values first:

Analog level (uptake) (DuPro cells; [2]): 2.788 nmoles/10^6 cells
Analog level (uptake) (DuPro cells; [3]): 17.206 nmoles/10^6 cells
Analog level (uptake) (DuPro cells; [4]): 25.074 nmoles/10^6 cells
Analog level (uptake) (DuPro cells; [5]): 21.472 nmoles/10^6 cells
IC50 (LnCap): 2200 nM
IC50 (PC-3): 600 nM
SMILES: CCCCCCCCCCCCCC1CC(=O)NCCCNCCCCNCCCN1 (stereo not drawn) [SL-11174]
Spm (spermine) level (DuPro cells; [2]): 0.002 nmoles/10^6 cells
Spm (spermine) level (DuPro cells; [3]): 0.001 nmoles/10^6 cells
Spm (spermine) level (DuPro cells; [4]): 0.001 nmoles/10^6 cells
Spm (spermine) level (DuPro cells; [5]): 0.0021 nmoles/10^6 cells
IC50 (DuPro): 830 nM

Analog level (uptake) (DuPro cells; [6]): 47.566 nmoles/10^6 cells
Analog level (uptake) (DuPro cells; [7]): 35.913 nmoles/10^6 cells
Analog level (uptake) (DuPro cells; [4]): 49.072 nmoles/10^6 cells
Analog level (uptake) (DuPro cells; [5]): 42.341 nmoles/10^6 cells
IC50 (LnCap): 2600 nM
IC50 (PC-3): 500 nM
SMILES: CCCCCCCCCCCCCC1CC(=O)NCCCNCCCNCCCN1 (stereo not drawn) [SL-11197]
Spm (spermine) level (DuPro cells; [6]): 0.004 nmoles/10^6 cells
Spm (spermine) level (DuPro cells; [7]): 0.002 nmoles/10^6 cells
IC50 (DuPro): 580 nM
